Results: US4260682A, “High sensitivity assays for angiotensin converting enzyme” (priority 1979, dated 1981)
Peptide text beside a SMILES is read from it. * marks the point of attachment. Bz = O=C(c1ccccc1)*

Target: T1, Guinea pig serum ACE (Cavia porcellus, UniProt H0UWL7)
T1 sequence (H0UWL7 33-1234): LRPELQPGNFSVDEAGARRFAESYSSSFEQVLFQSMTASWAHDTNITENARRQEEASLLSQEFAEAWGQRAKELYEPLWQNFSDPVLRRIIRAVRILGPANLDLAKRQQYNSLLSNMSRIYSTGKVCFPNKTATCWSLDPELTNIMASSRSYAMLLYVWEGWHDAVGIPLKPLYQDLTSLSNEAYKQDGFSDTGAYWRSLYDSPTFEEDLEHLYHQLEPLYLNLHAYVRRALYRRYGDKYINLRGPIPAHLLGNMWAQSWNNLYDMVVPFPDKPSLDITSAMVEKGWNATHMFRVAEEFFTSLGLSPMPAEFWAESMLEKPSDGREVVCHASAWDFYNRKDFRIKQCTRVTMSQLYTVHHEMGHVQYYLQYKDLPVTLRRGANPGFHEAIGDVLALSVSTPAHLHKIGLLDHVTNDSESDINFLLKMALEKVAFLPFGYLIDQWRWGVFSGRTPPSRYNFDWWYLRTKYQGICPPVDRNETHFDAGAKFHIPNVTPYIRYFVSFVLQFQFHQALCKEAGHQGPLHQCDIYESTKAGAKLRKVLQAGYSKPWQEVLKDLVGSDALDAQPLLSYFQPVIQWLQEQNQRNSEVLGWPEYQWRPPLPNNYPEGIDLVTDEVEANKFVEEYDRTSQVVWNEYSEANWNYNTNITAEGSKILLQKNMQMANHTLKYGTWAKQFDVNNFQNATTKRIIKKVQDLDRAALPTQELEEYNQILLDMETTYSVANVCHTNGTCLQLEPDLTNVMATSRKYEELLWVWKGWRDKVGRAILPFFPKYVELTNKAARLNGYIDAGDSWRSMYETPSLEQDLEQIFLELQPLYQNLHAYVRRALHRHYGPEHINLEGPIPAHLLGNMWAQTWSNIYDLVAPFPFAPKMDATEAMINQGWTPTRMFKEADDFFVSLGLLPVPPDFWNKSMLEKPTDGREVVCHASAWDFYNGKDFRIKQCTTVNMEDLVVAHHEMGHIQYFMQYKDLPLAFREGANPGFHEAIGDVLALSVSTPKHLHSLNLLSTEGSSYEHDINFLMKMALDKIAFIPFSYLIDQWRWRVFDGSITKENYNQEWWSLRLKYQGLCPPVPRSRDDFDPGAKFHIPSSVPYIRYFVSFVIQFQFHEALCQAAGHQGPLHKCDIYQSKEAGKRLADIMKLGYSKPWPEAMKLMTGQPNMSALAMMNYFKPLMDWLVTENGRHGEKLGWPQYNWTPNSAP
Assay: Kinetics of (sulfate-stimulated) HipHisLeu hydrolysis
Format: biochemical
Settings: for 1/V / V (reaction velocity): 0.1 M NaCl; for V (reaction velocity): 0.75 M Na2 SO4, pH 8.0, 37° C.
Procedure: Kinetics of Sulfate-Stimulated HipHisLeu Hydrolysis
In each assay, 50 μl of Guinea pig serum diluted 1-20 (v/v) in the reaction buffer was mixed with 50 μl of buffer containing sufficient ^3 H-HipHisLeu to provide approximately 100,000 cpm total, together with sufficient unlabeled HipHisLeu to produce the desired substrate concentrations, as indicated in Table 2. […] The reaction mixture was then extracted with 1 ml ethyl acetate. 500 μl of the ethyl acetate fraction was sampled and counted in a scintillation counter.

Structure (SMILES): CC(C)C[C@H](NC(=O)[C@H](Cc1c[nH]cn1)NC(=O)CNC(=O)c1ccccc1)C(=O)O [HipHisLeu] (Bz-Gly-His-Leu-OH)
- Vmax (0.05 M Hepes, pH 8.0, 0.1 M NaCl, 0.75 M Na2 SO4, serum diluted 1-20): 5.59 nmol/min/mL
- reduction of Km (0.75 M Na2 SO4 in reaction mixture containing 0.1 M NaCl): about 15 fold
- 1/V (HipHisLeu 0.01 mM, 0.75 M Na2 SO4): 3.33 nmole^-1 · min .multi
- V (reaction velocity) (HipHisLeu 0.01 mM): 0.30 nmol/min/mL
- 1/V (HipHisLeu 0.02 mM, 0.75 M Na2 SO4): 1.92 nmole^-1 · min .multi
- V (reaction velocity) (HipHisLeu 0.02 mM): 0.52 nmol/min/mL
- 1/V (HipHisLeu 0.03 mM, 0.75 M Na2 SO4): 1.35 nmole^-1 · min .multi
- V (reaction velocity) (HipHisLeu 0.03 mM): 0.74 nmol/min/mL
- 1/V (HipHisLeu 0.04 mM, 0.75 M Na2 SO4): 0.78 nmole^-1 · min .multi
- V (reaction velocity) (HipHisLeu 0.04 mM): 1.28 nmol/min/mL
- 1/V (HipHisLeu 0.05 mM, 0.75 M Na2 SO4): 0.88 nmole^-1 · min .multi
- V (reaction velocity) (HipHisLeu 0.05 mM): 1.14 nmol/min/mL
- 1/V (HipHisLeu 0.06 mM, 0.75 M Na2 SO4): 0.78 nmole^-1 · min .multi
- V (reaction velocity) (HipHisLeu 0.06 mM): 1.28 nmol/min/mL
- 1/V (HipHisLeu 0.07 mM, 0.75 M Na2 SO4): 0.47 nmole^-1 · min .multi
- V (reaction velocity) (HipHisLeu 0.07 mM): 2.14 nmol/min/mL
- 1/V (HipHisLeu 0.08 mM, 0.75 M Na2 SO4): 0.57 nmole^-1 · min .multi
- V (reaction velocity) (HipHisLeu 0.08 mM): 1.76 nmol/min/mL
- decrease in Km (sulfate ion 0.75-1.1 M vs. without): 14 fold
